Test results: patent US10869481B2, “Method for controlling nematode pests” (Syngenta Participations AG, priority 2014, dated 2020)

How the values were obtained:
Format in all cases: in vivo, Heterodera schachtii
[1] = test system: sugar beet nematode (SBN); assay: Yield response field trials, INVICTA susceptible sugar beet seeds, seed treatment
Protocol: (§1) The yield response study illustrates the unexpected increase in yield achieved by using a nematode-antagonistic biocontrol agent with SBN resistant or tolerant varieties. Multiple field trials were conducted across Germany, Czech Republic and Denmark. The results of nine different trials are presented below utilizing seed treatments on sugar beet seeds to combat nematodes.
(§2) The tests presented below were run on both susceptible and SBN tolerant varieties of sugar beet seeds. In particular, the susceptible variety is known by the trade name INVICTA and the tolerant variety is known by the trade name CACTUS. Each trial, on both the susceptible and tolerant variety, was run with a Control check that included no nematicide, a treatment on the seed with Pasteuria nishizawae at about 1×10^6 spores/seed, a treatment on the seed with Pasteuria nishizawae at about 1×10^7 spores/seed, and a treatment on the seed that included a commercial soil applied standard nematicide.
(§3) The results of trails are presented below where yield data has been averaged.
INVICTA Susceptible Sugar Beet Seeds

[2] = test system: sugar beet nematode (SBN); assay: Yield response field trials, CACTUS tolerant sugar beet seeds, seed treatment; details: for White Sugar yield/ha: CACTUS tolerant sugar beet, average of nine field trials
Protocol: as §1, §2, §3
CACTUS Tolerant Sugar Beet Seeds

[3] = test system: sugar beet nematode (SBN); assay: Root and sugar yield field trials, susceptible sugar beet seeds, seed treatment
Protocol: (§4) The root and sugar yield response study illustrates the unexpected increase in root and sugar yield achieved by using a nematode-antagonistic biocontrol agent with SBN resistant or tolerant varieties. Multiple field trials were conducted across Nebraska, Colorado, and Idaho. The results of four different trials are presented below utilizing seed treatments on sugar beet seeds to combat nematodes.
(§5) The tests presented below were run on both susceptible and SBN tolerant varieties of sugar beet seeds. Each trial, on both the susceptible and tolerant variety, was run with a Control check that included no nematicide, a treatment on the seed with Pasteuria nishizawae at about 5×10^6 spores/seed, a treatment on the seed with Pasteuria nishizawae at about 1×10^7 spores/seed, a treatment on the seed with Pasteuria nishizawae at about 2×10^7 spores/seed and a treatment on the seed with Pasteuria nishizawae at about 4×10^7 spores/seed.
as §3
Susceptible Sugar Beet Seeds

[4] = test system: sugar beet nematode (SBN); assay: Root and sugar yield field trials, tolerant sugar beet seeds, seed treatment; details: average of four field trials
Protocol: as §4, §5, §3
Tolerant Sugar Beet Seeds

[5] = 1 × 10^7 spores/seed, average of four field trials
[6] = 2 × 10^7 spores/seed, average of four field trials
[7] = 4 × 10^7 spores/seed, average of four field trials

## Pasteuria nishizawae
[1]; seed treatment 1 × 10^6 spores/seed, average of nine field trials (Germany, Czech Republic, Denmark)
  White Sugar yield/ha: 11.09 /ha
[1]; seed treatment 1 × 10^7 spores/seed, average of nine field trials
  White Sugar yield/ha: 11.20 /ha
[2]; seed treatment 1 × 10^6 spores/seed
  White Sugar yield/ha: 12.65 /ha
[2]; seed treatment 1 × 10^7 spores/seed
  White Sugar yield/ha: 12.93 /ha
[2]; tolerant varieties treated with Pasteuria, statement in words
  yield compared with commercial standards: showed an increase over commercial standards
[3]; [5]
  Root Yield: 19.9 Ton/Acre
  White Sugar: 2.5 Ton/Acre
[3]; [6]
  Root Yield: 19.8 Ton/Acre
  White Sugar: 2.3 Ton/Acre
[3]; [7]
  Root Yield: 19.5 Ton/Acre
  White Sugar: 2.4 Ton/Acre
[3]; 5 × 10^6 spores/seed, average of four field trials
  Root Yield: 17.4 Ton/Acre
[3]; 5 × 10^6 spores/seed, average of four field trials (Nebraska, Colorado, Idaho)
  White Sugar: 2.0 Ton/Acre
[4]; 1 × 10^7 spores/seed
  Root Yield: 27.2 Ton/Acre
  White Sugar: 3.5 Ton/Acre
[4]; 2 × 10^7 spores/seed
  Root Yield: 27.2 Ton/Acre
  White Sugar: 3.7 Ton/Acre
[4]; 4 × 10^7 spores/seed
  Root Yield: 26.7 Ton/Acre
  White Sugar: 3.5 Ton/Acre
[4]; 5 × 10^6 spores/seed
  Root Yield: 26.1 Ton/Acre
  White Sugar: 3.6 Ton/Acre
